“And” between values parts separate entries of the source, which are not always exact repeats. Identical values can stand only once.

We go through 35 molecules from patent US11690850B2, “Inhibitors of receptor interacting protein kinase I for the treatment of disease” (Board of Regents, The University of Texas System, priority 2019, dated 2023).

Sequence of RIPK1 (Q13546 1-327): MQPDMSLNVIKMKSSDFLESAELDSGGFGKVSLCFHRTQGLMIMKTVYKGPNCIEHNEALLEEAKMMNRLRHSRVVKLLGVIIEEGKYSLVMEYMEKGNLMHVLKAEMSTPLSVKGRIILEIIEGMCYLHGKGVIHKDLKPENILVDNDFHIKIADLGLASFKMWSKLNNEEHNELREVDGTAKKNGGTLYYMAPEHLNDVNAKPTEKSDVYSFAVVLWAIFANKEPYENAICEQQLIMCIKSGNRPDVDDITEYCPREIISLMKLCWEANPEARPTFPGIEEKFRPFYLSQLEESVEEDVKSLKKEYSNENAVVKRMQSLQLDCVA

The experiment addresses RIPK1 (Homo sapiens (Human), UniProt Q13546). Kind of experiment: ADP-Glo Kinase Assay. Type of experiment: biochemical. The settings on record: 5 nM RIPK1 protein, 50 μM ATP, 6 hr reaction, average value across multiple runs. As for the experimental part:
In order to measure RIPK1 activity the ADP-Glo kinase assay (Promega, Catalog #V7002) was used to measure the conversion of ATP to ADP. This enzymatic assay was performed in a 384-well white, Optiplate (Perkin Elmer, Catalog #6007299) with assay buffer consisting of 50 mM HEPES pH 7.5 (Gibco, Catalog #15630-080), 50 mM NaCl (Teknova, Catalog #S0252), 30 mM MgCl2 (Ambion, Catalog #AM9530G), 1 mM DTT (Santa Cruz Biotechnology, Catalog #sc-29089), 0.05% BSA (Sigma, Catalog #A3059-50G) and 0.02% CHAPS (Sigma, Catalog #C5070-5G). Stock solutions of the test compounds were prepared in 100% DMSO (Sigma, Catalog #D2650) and serially diluted 1:3 using 100% DMSO. Compounds were additionally diluted 1:40 in assay buffer, and 2 μL/well were transferred to the assay plate. 4 μL/well (final concentration of 5 nM) of RIPK1 protein (SignalChem, Catalog #R07-11G-05) diluted in assay buffer and added to the assay plate followed by a 10 minute preincutation at room temperature. 4 μL/well of ATP (Promega, Catalog #V7002) (final concentration of 50 μM) diluted in assay buffer were then added to the assay plate followed by a 6 hr reaction time. Final concentrations of RIPK1 and ATP refer to a 10 μL volume. Luminescence was measured using a BioTek Synergy™ NEO plate reader. IC50 values were calculated using a four-parameter logistic curve fit using Genedata Screener software. Results are shown below in Table 4, where the average value across multiple runs is given.
In general terms: ADP-Glo first removes unused ATP, then detects ADP through luciferase.
For orientation: IC50 means the concentration that inhibits the measured activity by half. With `Cc1cc(=O)c(C(=O)Nc2cccc(Cl)c2F)nn1Cc1ccccc1` [Example 2, 1-Benzyl-N-(3-chloro-2-fluorophenyl)-6-methyl-4-oxo-1,4-dihydropyridazine-3-carboxamide], the IC50 turned out to be 0.823 µM. Take `Cc1ccc(-n2nc(C(=O)NC3CCc4ccccc4NC3=O)c(=O)cc2C)cc1F` (centres unmarked) [Example 52, 1-(3-fluoro-4-methylphenyl)-6-methyl-4-oxo-N-(2-oxo-2,3,4,5-tetrahydro-1H-benzo[b]azepin-3-yl)-1,4-dihydro-pyridazine-3-carboxamide]: the IC50 stood at 0.037 µM. Consider `Cc1cc(=O)c(C(=O)Nc2cc(Cl)cc(C#N)c2)nn1-c1ccccc1` [Example 5, N-(3-chloro-5-cyanophenyl)-6-methyl-4-oxo-1-phenyl-1,4-dihydropyridazine-3-carboxamide], for which the IC50 was 1.78 µM. In the case of `Cc1cc(=O)c(C(=O)Nc2ccccn2)nn1-c1ccc(Cl)cc1` [Example 103, 1-(4-chlorophenyl)-6-methyl-4-oxo-N-(pyridin-2-yl)-1,4-dihydropyridazine-3-carboxamide], the IC50 stood at 5 µM.

Turning to `Cc1cccc(C)c1NC(=O)c1nn(-c2ccccc2)c(C)cc1=O` [Example 22, N-(2,6-dimethylphenyl)-6-methyl-4-oxo-1-phenyl-1,4-dihydropyridazine-3-carboxamide], the IC50 worked out at 1.5 µM. Regarding `COCc1cc(=O)c(C(=O)Nc2cccc(Cl)c2F)nn1C` [Example 88, N-(3-chloro-2-fluorophenyl)-6-(methoxymethyl)-1-methyl-4-oxo-1,4-dihydropyridazine-3-carboxamide], the IC50 was 33.3 µM.

Take `Cc1cc(=O)c(C(=O)Nc2ccn3nccc3c2)nn1-c1ccccc1` [Example 11, 6-methyl-4-oxo-1-phenyl-N-(pyrazolo[1,5-a]pyridin-5-yl)-1,4-dihydropyridazine-3-carboxamide]: the IC50 stood at 15.4 µM.

Take `Cc1cc(=O)c(C(=O)Nc2c(C(C)C)ncnc2C(C)C)nn1-c1ccccc1` [Example 34, N-(4,6-diisopropylpyrimidin-5-yl)-6-methyl-4-oxo-1-phenyl-1,4-dihydropyridazine-3-carboxamide]: the IC50 stood at 3.91 µM.

On to `Cc1nn(C)c(C)c1NC(=O)c1nn(-c2ccccc2)c(C)cc1=O` [Example 14, 6-methyl-4-oxo-1-phenyl-N-(1,3,5-trimethyl-1H-pyrazol-4-yl)-1,4-dihydropyridazine-3-carboxamide], for which the IC50 came to 4.61 µM. To `Cc1nocc1NC(=O)c1nn(-c2ccccc2)c(C)cc1=O` [Example 86, 6-methyl-N-(3-methylisoxazol-4-yl)-4-oxo-1-phenyl-1,4-dihydropyridazine-3-carboxamide] belongs 17.6 µM. For `Cc1cc(=O)c(C(=O)Nc2ccc(C#N)s2)nn1-c1ccccc1` [Example 21, N-(5-cyanothiophen-2-yl)-6-methyl-4-oxo-1-phenyl-1,4-dihydropyridazine-3-carboxamide], the IC50 worked out at 0.636 µM. For `Cc1cc(=O)c(C(=O)N2CCC(Oc3ccccn3)C2)nn1-c1ccccc1` (centres unmarked) [Example 113, 6-methyl-1-phenyl-3-(3-(pyridin-2-yloxy)pyrrolidine-1-carbonyl)pyridazin-4(1H)-one], the IC50 is 29.5 µM. For the molecule `Cc1cc(=O)c(C(=O)Nc2ccncc2)nn1-c1ccccc1` [Example 115, 6-methyl-4-oxo-1-phenyl-N-(pyridin-4-yl)-1,4-dihydropyridazine-3-carboxamide], the IC50 is 2.92 µM and 3.47 µM. To `Cc1cc(=O)c(C(=O)NC(C)C2CC2)nn1-c1ccccc1` (centres unmarked) [Example 96, N-(1-cyclopropylethyl)-6-methyl-4-oxo-1-phenyl-1,4-dihydropyridazine-3-carboxamide] belongs 6.49 µM. As to `Cc1cc(=O)c(C(=O)Nc2ccccc2C2CC2)nn1-c1ccccc1` [Example 30, N-(2-cyclopropylphenyl)-6-methyl-4-oxo-1-phenyl-1,4-dihydropyridazine-3-carboxamide], the IC50 turned out to be 15.5 µM.

As to `Cc1cc(=O)c(C(=O)NCC2CCC2)nn1-c1ccccc1` [Example 104, N-(cyclobutylmethyl)-6-methyl-4-oxo-1-phenyl-1,4-dihydropyridazine-3-carboxamide], the IC50 was found to be 8.25 µM.

Take `Cc1nccc(NC(=O)c2nn(-c3ccccc3)c(C)cc2=O)n1` [Example 20, 6-methyl-N-(2-methylpyrimidin-4-yl)-4-oxo-1-phenyl-1,4-dihydropyridazine-3-carboxamide]: the IC50 was 4.46 µM. Take `Cc1cc(=O)c(C(=O)Nc2ccc3nn[nH]c3c2)nn1-c1ccccc1` [Example 13, N-(1H-benzo[d][1,2,3]triazol-6-yl)-6-methyl-4-oxo-1-phenyl-1,4-dihydropyridazine-3-carboxamide]: the IC50 was found to be 7.92 µM. On to `C#CCNC(=O)c1nn(-c2ccccc2)c(C)cc1=O` [Example 110, 6-methyl-4-oxo-1-phenyl-N-(prop-2-yn-1-yl)-1,4-dihydropyridazine-3-carboxamide], for which the IC50 was found to be 1.59 µM. For `Cc1cc(NC(=O)c2nn(-c3ccccc3)c(C)cc2=O)sn1` [Example 111, 6-methyl-N-(3-methylisothiazol-5-yl)-4-oxo-1-phenyl-1,4-dihydropyridazine-3-carboxamide], the IC50 turned out to be 39.1 µM. Turning to `Cc1cc(=O)c(C(=O)Nc2ccccc2)nn1-c1cccc(Cl)c1F` [Example 7, 1-(3-chloro-2-fluorophenyl)-6-methyl-4-oxo-N-phenyl-1,4-dihydropyridazine-3-carboxamide], the IC50 amounted to 1.6 µM.

Consider `Cc1cc(=O)c(C(=O)Nc2ccc(Cl)cn2)nn1-c1ccccc1F` [Example 100, N-(5-chloropyridin-2-yl)-1-(2-fluorophenyl)-6-methyl-4-oxo-1,4-dihydropyridazine-3-carboxamide], for which the IC50 is 43.8 µM. For `Cc1cc(=O)c(C(=O)Nc2nc(C(F)(F)F)c(Br)s2)nn1-c1ccccc1` [Example 84, N-(5-bromo-4-(trifluoromethyl)thiazol-2-yl)-6-methyl-4-oxo-1-phenyl-1,4-dihydropyridazine-3-carboxamide], the IC50 was 33.3 µM. In the case of `Cc1cc(=O)c(C(=O)Nc2ccccn2)nn1-c1ccccc1` [Example 106, 6-methyl-4-oxo-1-phenyl-N-(pyridin-2-yl)-1,4-dihydropyridazine-3-carboxamide], the IC50 is 1.78 µM.

Take `COCc1cc(=O)c(C(=O)Nc2cccc(Cl)c2F)nn1-c1ccccc1` [Example 35, N-(3-chloro-2-fluorophenyl)-6-(methoxymethyl)-4-oxo-1-phenyl-1,4-dihydropyridazine-3-carboxamide]: the IC50 came to 1.78 µM. In the case of `CCn1c(NC(=O)c2nn(-c3ccccc3)c(C)cc2=O)nc2ccccc21` [Example 101, N-(1-ethyl-1H-benzo[d]imidazol-2-yl)-6-methyl-4-oxo-1-phenyl-1,4-dihydropyridazine-3-carboxamide], the IC50 came out at 4.64 µM. In the case of `Cc1ccc(NC(=O)c2nn(-c3ccccc3)c(C)cc2=O)cc1` [Example 97, 6-methyl-4-oxo-1-phenyl-N-(p-tolyl)-1,4-dihydropyridazine-3-carboxamide], the IC50 turned out to be 11.6 µM. In the case of `Cc1cc(=O)c(C(=O)Nc2cc(F)cc(F)c2)nn1-c1ccccc1` [Example 92, N-(3,5-difluorophenyl)-6-methyl-4-oxo-1-phenyl-1,4-dihydropyridazine-3-carboxamide], the IC50 is 0.414 µM.

In the case of `Cc1cc(NC(=O)c2nn(-c3ccccc3)c(C)cc2=O)ncn1` [Example 15, 6-methyl-N-(6-methylpyrimidin-4-yl)-4-oxo-1-phenyl-1,4-dihydropyridazine-3-carboxamide], the IC50 worked out at 13.6 µM.

`Cc1cccc(C(F)(F)F)c1NC(=O)c1nn(-c2ccccc2)c(C)cc1=O` [Example 29, 6-methyl-N-(2-methyl-6-(trifluoromethyl)phenyl)-4-oxo-1-phenyl-1,4-dihydropyridazine-3-carboxamide]: the IC50 amounted to 1.15 µM. Regarding `Cc1cc(=O)c(C(=O)Nc2cccc(F)c2)nn1-c1ccccc1` [Example 93, N-(3-fluorophenyl)-6-methyl-4-oxo-1-phenyl-1,4-dihydropyridazine-3-carboxamide], the IC50 is 0.282 µM. In the case of `Cc1cc(=O)c(C(=O)Nc2c(F)cccc2C(C)C)nn1-c1ccccc1` [Example 27, N-(2-fluoro-6-isopropylphenyl)-6-methyl-4-oxo-1-phenyl-1,4-dihydropyridazine-3-carboxamide], the IC50 came out at 1.46 µM. To `Cc1cnc2ccccc2c1NC(=O)c1nn(-c2ccccc2)c(C)cc1=O` [Example 31, 6-methyl-N-(3-methylquinolin-4-yl)-4-oxo-1-phenyl-1,4-dihydropyridazine-3-carboxamide] belongs 0.519 µM; to `Cc1cccc(NC(=O)c2nn(-c3ccccc3)c(C)cc2=O)n1` [Example 99, 6-methyl-N-(6-methylpyridin-2-yl)-4-oxo-1-phenyl-1,4-dihydropyridazine-3-carboxamide], 3.49 µM. To `Cc1cc(=O)c(C(=O)Nc2cc(Cl)c3cn[nH]c3c2)nn1-c1ccccc1` [Example 18, N-(4-chloro-1H-indazol-6-yl)-6-methyl-4-oxo-1-phenyl-1,4-dihydropyridazine-3-carboxamide] belongs 4.71 µM.
